# According to patent US8476265B2, “Compounds-801” (AstraZeneca AB, priority 2010, dated 2013):
# How the values were obtained:
# Adrenergic β2 [1] = biological target: T1, Adrenergic β2 (Homo sapiens, UniProt P07550); assay: Adrenergic β2 mediated cAMP production in H292 cells, single concentration 1 μM; assay type: cell-based; conditions: NCI-H292, 1 μM compound, cAMP as percentage of the maximum response generated by 1E-07M formoterol, read-out: β2 % effect @1 uM
# T1 construct: Adherent H292 cells are removed from tissue culture flasks by treatment with Accutase™ cell detachment solution; endogenous in cells; host or cells: H292 cells
# Procedure: The following experimental procedure was used to measure the beta-2% effect at 1 μM for the compounds of Examples 99-175. Adrenergic p2 Mediated cAMP Production Cell Preparation
# H292 cells are grown in 225 cm2 flasks incubator at 37° C., 5% CO2 in RPMI medium containing 10% (v/v) FBS (foetal bovine serum) and 2 mM L-glutamine.
# Compounds are prepared by an initial first dilution into DMSO to give 1 mM stock concentration. This is followed by a 1 in 10 dilution of the stock concentration (10 μl stock compound +90 μl DMSO) to give 0.1 mM compound. A compound addition plate is prepared by making a further 1 in 25 dilution in assay buffer (HBSS solution containing 10 mM HEPES pH7.4 and 5 mM glucose) containing 4% dimethylsulfoxide. The final compound concentration in assay is 1 μM.
# Adherent H292 cells are removed from tissue culture flasks by treatment with Accutase™ cell detachment solution for 15 minutes. Flasks are incubated for 15 minutes in a humidified incubator at 37° C., 5% CO2. Detached cells are re-suspended in RPMI media (containing 10% (v/v) FBS and 2 mM L-glutamine) at 0.1×10^6 cells per mL. 10000 cells in 100 μL are added to each well of a tissue-culture-treated 96-well plate and the cells incubated overnight in a humidified incubator at 37° C., 5% CO2. The culture media is removed and cells are washed twice with 100 μL assay buffer and replaced with 50 μL assay buffer (HBSS solution containing 10 mM HEPES pH7.4 and 5 mM glucose). Cells are rested at room temperature for 20 minutes after which time 25 μL of rolipram (1.2 mM made up in assay buffer) is added. Cells are incubated with rolipram for 10 minutes after which time 25 μl test compounds are added and the cells are incubated for 60 minutes at room temperature. The final rolipram concentration in the assay is 300 μM and final vehicle concentration is 1% (v/v) dimethylsulphoxide. The reaction is stopped by removing supernatants, washing once with 100 μL assay buffer and replacing with 50 μL lysis buffer. The cell monolayer is frozen at −80° C. for 30 minutes (or overnight).
# AlphaScreen™ cAMP Detection
# The concentration of cAMP (cyclic adenosine monophosphate) in the cell lysate is determined using AlphaScreen™ methodology. The frozen cell plate is thawed for 20 minutes on a plate shaker then 10 μL of the cell lysate is transferred to a 96-well white plate. 40 μl of mixed AlphaScreen™ detection beads (containing equal volumes of donor beads (pre-incubated with biotinylated cAMP in the dark for 30 minutes) and acceptor beads is added to each well and the plate incubated at room temperature for 3 hours in the dark. The AlphaScreen™ signal is measured using an EnVision spectrophotometer (Perkin-Elmer Inc.) with the recommended manufacturer's settings. Concentration of cAMP produced per well were calculated with reference to the cAMP standard curve determined in the same experiment and expressed as a percentage of the maximum response generated by 1E-07M formoterol.
# [2] = biological target: T2, human muscarinic acetylcholine M3 receptor (Homo sapiens, UniProt P20309); assay: Muscarinic 3 receptor binding assay ([3H]NMS competition, SPA), single concentration 1 μM; conditions: 1 μM compound; % inhibition specific [3H]-NMS binding
# T2 construct: expressed in transfected cells; host or cells: CHO-K1 (Chinese Hamster Ovary) cell membranes
# Procedure: The following experimental procedure was used to determine the M3% inhibition at 1 μM of the compounds of Examples 99-175
# Muscarinic 3 Receptor Binding Assay
# The activity (% inhibition specific binding) of compounds on the M3 receptor is determined by competition binding of [^3H]N-methyl scopolamine (NMS) to CHO-K1 (Chinese Hamster Ovary) cell membranes expressing the human muscarinic acetylcholine M3 receptor (M3-ACh) in a scintillation proximity assay (SPA) format. SPA beads are precoated with membranes and then incubated at 2 mg of beads per well with 1 μM compound of the invention, [^3H]NMS at 0.1 nM, quarter Kd (experimentally determined dissociation constant) and assay buffer (20 mM HEPES pH 7.4 containing 5 mM MgCl2 and 0.1% (w/v) bovine serum albumin). The assay is conducted in a final volume of 200 μL, in the presence of 1% (v/v) dimethyl sulphoxide (DMSO). Total binding of [^3H]NMS is determined in the absence of competing compound and non-specific binding of [^3H]NMS is determined in the presence of 1 μM atropine. The plates are incubated for 16 hours at room temperature and then read on Wallac Microbeta™ using a normalised ^3H protocol. The compound activity at 1 μM, defined as % inhibition specific [^3H]-NMS binding, is determined.
# Adrenergic β2 [3] = biological target: T1, Adrenergic β2; assay: Adrenergic β2 mediated cAMP production in H292 cells (AlphaScreen), concentration response; assay type: cell-based; conditions: for EC50: 60 min, 300 μM rolipram, read-out: β2 pEC50 (converted); for β2 Intrinsic Activity: fraction relative to the maximum activity determined for formoterol
# How it was run: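 H292 cells seeded overnight, pretreated 10 min with rolipram (300 μM final), then exposed to compounds 60 min at room temperature in HBSS/10 mM HEPES pH 7.4/5 mM glucose, 1% DMSO. Lysate cAMP quantified by AlphaScreen against a standard curve; four-parameter fit gives pEC50 and intrinsic activity relative to formoterol maximum.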
# [4] = biological target: T2, human muscarinic acetylcholine M3 receptor; assay: Muscarinic 3 receptor binding assay ([3H]NMS competition, SPA), pIC50; conditions: [3H]NMS 0.1 nM, CHO-K1 cell membranes expressing human M3 receptor
# How it was run: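 Competition of [3H]NMS (0.1 nM, quarter Kd) binding to CHO-K1 membranes expressing human M3, SPA format, in 20 mM HEPES pH 7.4, 5 mM MgCl2, 0.1% BSA, 1% DMSO. Incubated 16 h at room temperature; non-specific binding with 1 μM atropine; pIC50 from specific binding.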
# T1 sequence (P07550 whole entry): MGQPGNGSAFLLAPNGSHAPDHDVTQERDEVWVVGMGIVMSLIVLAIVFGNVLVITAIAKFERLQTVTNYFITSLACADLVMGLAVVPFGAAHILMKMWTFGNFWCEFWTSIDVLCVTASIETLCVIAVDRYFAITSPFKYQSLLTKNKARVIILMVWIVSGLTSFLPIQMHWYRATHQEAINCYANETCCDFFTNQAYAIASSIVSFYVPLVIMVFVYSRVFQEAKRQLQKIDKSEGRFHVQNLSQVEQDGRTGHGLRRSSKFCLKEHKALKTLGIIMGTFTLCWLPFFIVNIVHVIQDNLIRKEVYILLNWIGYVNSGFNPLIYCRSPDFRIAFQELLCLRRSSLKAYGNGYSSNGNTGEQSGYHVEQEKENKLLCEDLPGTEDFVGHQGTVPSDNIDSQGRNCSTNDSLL
# T2 sequence (P20309 whole entry): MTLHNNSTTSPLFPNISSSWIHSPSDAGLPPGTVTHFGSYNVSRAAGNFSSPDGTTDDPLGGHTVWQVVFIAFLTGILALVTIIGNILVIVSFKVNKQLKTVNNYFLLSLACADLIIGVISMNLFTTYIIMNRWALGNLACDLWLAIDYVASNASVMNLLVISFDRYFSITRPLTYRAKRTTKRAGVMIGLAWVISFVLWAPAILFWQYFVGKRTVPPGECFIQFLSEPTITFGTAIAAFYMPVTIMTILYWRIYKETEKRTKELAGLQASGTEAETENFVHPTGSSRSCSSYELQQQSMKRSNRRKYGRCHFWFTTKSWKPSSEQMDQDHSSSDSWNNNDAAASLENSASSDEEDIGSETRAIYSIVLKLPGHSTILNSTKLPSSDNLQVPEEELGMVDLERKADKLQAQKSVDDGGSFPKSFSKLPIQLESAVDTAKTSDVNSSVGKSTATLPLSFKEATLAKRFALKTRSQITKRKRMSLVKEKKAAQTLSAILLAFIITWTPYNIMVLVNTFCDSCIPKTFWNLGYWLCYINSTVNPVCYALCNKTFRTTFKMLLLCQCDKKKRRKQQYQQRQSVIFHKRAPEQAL
Structure (SMILES),percent of formoterol maximum response at 1 µM (Adrenergic β2 [1]) [%],inhibition at 1 µM [2] [%],EC50 (Adrenergic β2 [3]) [nM],β2 Intrinsic Activity (Adrenergic β2 [3]),IC50 [4] [nM]
"Cc1cc2ncc(C(=O)N3CCOC4(CCN(Cc5cccc(CCOCCC(=O)N(CCNCCc6ccc(O)c7c6OCC(=O)N7)C6CCCCC6)c5)CC4)C3)c(C)n2n1 [Example 108, N-Cyclohexyl-3-(3-((4-(2,7-dimethylpyrazolo[1,5-a]pyrimidine-6-carbonyl)-1-oxa-4,9-diazaspiro[5.5]undecan-9-yl)methyl)phenethoxy)-N-(2-(2-(5-hydroxy-3-oxo-3,4-dihydro-2H-benzo[b][1,4]oxazin-8-yl)ethylamino)ethyl)propanamide]",98,80,,,
"O=C1COc2c(CCNCCN(C(=O)CCOCCc3cccc(CN4CCC5(CC4)CN(C(=O)CC46CC7CC(CC(O)(C7)C4)C6)CCO5)c3)C3CCCCC3)ccc(O)c2N1 [Example 116, N-Cyclohexyl-3-[2-[3-[[10-[2-(3-hydroxy-1-adamantyl)acetyl]-7-oxa-3,10-diazaspiro[5.5]undecan-3-yl]methyl]phenyl]ethoxy]-N-[2-[2-(5-hydroxy-3-oxo-4H-1,4-benzoxazin-8-yl)ethylamino]ethyl]propanamide]",80,94,,,
"CC(C)C[C@H](O)C(=O)N1CCOC2(CCN(Cc3cccc(CCOCCC(=O)N(CCNCCc4ccc(O)c5c4OCC(=O)N5)C4CCCCC4)c3)CC2)C1 [Example 137, (S)-N-Cyclohexyl-N-(2-(2-(5-hydroxy-3-oxo-3,4-dihydro-2H-benzo[b][1,4]oxazin-8-yl)ethylamino)ethyl)-3-(3-((4-(2-hydroxy-4-methylpentanoyl)-1-oxa-4,9-diazaspiro[5.5]undecan-9-yl)methyl)phenethoxy)propanamide]",88,100,,,
"Cc1ncc(Br)cc1C(=O)N1CCOC2(CCN(Cc3cccc(CCOCCC(=O)N(CCNCCc4ccc(O)c5c4OCC(=O)N5)C4CCCCC4)c3)CC2)C1 [Example 118, 3-(3-((4-(5-Bromo-2-methylnicotinoyl)-1-oxa-4,9-diazaspiro[5.5]undecan-9-yl)methyl)phenethoxy)-N-cyclohexyl-N-(2-(2-(5-hydroxy-3-oxo-3,4-dihydro-2H-benzo[b][1,4]oxazin-8-yl)ethylamino)ethyl)propanamide]",97,96,,,
"COC(C(=O)N1CCOC2(CCN(Cc3cccc(CCOCCC(=O)N(CCNCCc4ccc(O)c5c4OCC(=O)N5)C4CCCCC4)c3)CC2)C1)c1ccccc1 (stereo not shown) [Example 171, N-Cyclohexyl-N-(2-(2-(5-hydroxy-3-oxo-3,4-dihydro-2H-benzo[b][1,4]oxazin-8-yl)ethylamino)ethyl)-3-(3-((4-(2-methoxy-2-phenylacetyl)-1-oxa-4,9-diazaspiro[5.5]undecan-9-yl)methyl)phenethoxy)propanamide]",94,96,,,
"CCN(CCNCCc1ccc(O)c2[nH]c(=O)sc12)C(=O)CCOCCc1cc(CN2CCC3(CC2)CN(C(=O)c2csc(C)n2)CCO3)ccc1Cl [Example 46, 3-(2-Chloro-5-((4-(2-methylthiazole-4-carbonyl)-4-oxa-4,9-diazaspiro[5.5]undecan-9-yl)methyl)phenethoxy)-N-ethyl-N-(2-(2-(4-hydroxy-2-oxo-2,3-dihydrobenzo[d]thiazol-7-yl)ethylamino)ethyl)propanamide ditrifluoroacetate]",,,398,0.9,0.316
"CCN(CCNCCc1ccc(O)c2[nH]c(=O)sc12)C(=O)CCOCCc1cccc(CN2CCC3(CC2)CN(C(=O)c2csc(C(C)C)n2)CCO3)c1OC [Example 68, N-Ethyl-N-(2-(2-(4-hydroxy-2-oxo-2,3-dihydrobenzo[d]thiazol-7-yl)ethylamino)ethyl)-3-(3-((4-(2-isopropylthiazole-4-carbonyl)-1-oxa-4,9-diazaspiro[5.5]undecan-9-yl)methyl)-2-methoxyphenethoxy)propanamide ditrifluoroacetate]",,,10,0.6,10
"CC(C)c1nc(C(=O)N2CCOC3(CCN(Cc4cccc(OCCOCCC(=O)N(CCNCCc5ccc(O)c6c5OCC(=O)N6)C5CCCCC5)c4)CC3)C2)cs1 [Example 59, N-Cyclohexyl-N-(2-(2-(5-hydroxy-3-oxo-3,4-dihydro-2H-benzo[b][1,4]oxazin-8-yl)ethylamino)ethyl)-3-(2-(3-((4-(2-isopropylthiazole-4-carbonyl)-1-oxa-4,9-diazaspiro[5.5]undecan-9-yl)methyl)phenoxy)ethoxy)propanamide ditrifluoroacetate]",,,631,0.9,0.251
"CCN(CCNCCc1ccc(O)c2[nH]c(=O)sc12)C(=O)CCOCCc1cccc(OCCCN2CCC3(CC2)CN(C(=O)c2csc(C(C)C)n2)CCO3)c1 [Example 61, N-Ethyl-N-(2-(2-(4-hydroxy-2-oxo-2,3-dihydrobenzo[d]thiazol-7-yl)ethylamino)ethyl)-3-(3-(3-(4-(2-isopropylthiazole-4-carbonyl)-1-oxa-4,9-diazaspiro[5.5]undecan-9-yl)propoxy)phenethoxy)propanamide ditrifluoroacetate]",,,20,0.7,2
"Cc1c(CCOCCC(=O)N(CCNCCc2ccc(O)c3c2OCC(=O)N3)C2CCCC2)cccc1CN1CCC2(CC1)CN(C(=O)c1csc(C(C)C)n1)CCO2 [Example 64, N-Cyclopentyl-N-(2-(2-(5-hydroxy-3-oxo-3,4-dihydro-2H-benzo[b][1,4]oxazin-8-yl)ethylamino)ethyl)-3-(3-((4-(2-isopropylthiazole-4-carbonyl)-1-oxa-4,9-diazaspiro[5.5]undecan-9-yl)methyl)-2-methylphenethoxy)propanamide ditrifluoroacetate]",,,20,1.0,2.51
"O=C1COc2c(CCNCCN(C(=O)CCOCCc3cccc(CN4CCC5(CC4)CN(C(=O)c4csc(-c6ccccc6)n4)CCO5)c3)C3CCCCC3)ccc(O)c2N1 [Example 82, N-Cyclohexyl-N-(2-(2-(5-hydroxy-3-oxo-3,4-dihydro-2H-benzo[b][1,4]oxazin-8-yl)ethylamino)ethyl)-3-(3-((4-(2-phenylthiazole-4-carbonyl)-1-oxa-4,9-diazaspiro[5.5]undecan-9-yl)methyl)phenethoxy)propanamide]",,,501,1.0,1.26
